Experiments:
[1] = tested on: Edwardsiella tarda; assay: Antimicrobial activity against Edwardsiella tarda ATCC 15947 assessed as inhibition of microbial growth by CLSI protocol based two-fold serial broth microdilution method; assay type: functional
[2] = Selectivity index, ratio of CC50 for cytotoxicity against human Huh7.5 cells to EC50 for antiviral activity against HCV infected in human Huh7.5 cells; assay type: toxicity, cell-based; settings: read-out: Ratio CC50/EC50
[3] = tested on: Hepatitis C virus; assay: Antiviral activity against HCV infected in human Huh-7.5 cells assessed as inhibition of viral replication incubated for 72 hrs by qRT-PCR analysis; assay type: functional, organism-based, Hepacivirus hominis; settings: Huh7.5, 72 h
[4] = Cytotoxicity against human Huh7.5 cells assessed as reduction in cell viability by CCK-8 assay; assay type: toxicity, cell-based, Huh-7.5
[5] = tested on: Pseudomonas aeruginosa; assay: Antimicrobial activity against Pseudomonas aeruginosa ATCC 27853 assessed as inhibition of microbial growth by CLSI protocol based two-fold serial broth microdilution method; assay type: functional
[6] = tested on: Klebsiella pneumoniae; assay: Antimicrobial activity against Klebsiella pneumoniae ATCC 700603 assessed as inhibition of microbial growth by CLSI protocol based two-fold serial broth microdilution method; assay type: functional
[7] = tested on: Bacillus subtilis; assay: Antimicrobial activity against Bacillus subtilis ATCC 6633 assessed as inhibition of microbial growth by CLSI protocol based two-fold serial broth microdilution method; assay type: functional
[8] = tested on: Edwardsiella ictaluri; assay: Antimicrobial activity against Edwardsiella ictaluri ATCC 33202 assessed as inhibition of microbial growth by CLSI protocol based two-fold serial broth microdilution method; assay type: functional
[9] = tested on: Staphylococcus epidermidis; assay: Antimicrobial activity against Staphylococcus epidermidis ATCC 12228 assessed as inhibition of microbial growth by CLSI protocol based two-fold serial broth microdilution method; assay type: functional
[10] = tested on: Escherichia coli; assay: Antimicrobial activity against Escherichia coli ATCC 25922 assessed as inhibition of microbial growth by CLSI protocol based two-fold serial broth microdilution method; assay type: functional
[11] = tested on: Staphylococcus aureus; assay: Antimicrobial activity against Staphylococcus aureus ATCC 29213 assessed as inhibition of microbial growth by CLSI protocol based two-fold serial broth microdilution method; assay type: functional

CC(C)=C[C@@H]1C[C@](C)(O)[C@@H](C[C@@H](OC(=O)Cc2ccccc2)/C(C)=C/CO[C@@H]([C@H](O)[C@H](O)CO)[C@H](O)CO)O1
MIC [1]: ≥ 128 µg/mL
selectivity ratio [2]: > 23
EC50 [3]: 8.8 µM
CC50 [4]: > 200 µM
MIC [5]: ≥ 128 µg/mL
MIC [6]: ≥ 128 µg/mL
MIC [7]: ≥ 128 µg/mL
MIC [8]: ≥ 128 µg/mL
MIC [9]: ≥ 128 µg/mL
MIC [10]: ≥ 128 µg/mL
MIC [11]: ≥ 128 µg/mL

CC(C)=C[C@H]1C[C@](C)(O)[C@@H](C[C@@H](OC(=O)Cc2ccccc2)/C(C)=C/CO[C@@H]([C@H](O)[C@H](O)CO)[C@H](O)CO)O1
MIC [1]: ≥ 128 µg/mL
selectivity ratio [2]: > 12
EC50 [3]: 16 µM
CC50 [4]: > 200 µM
MIC [5]: ≥ 128 µg/mL
MIC [6]: ≥ 128 µg/mL
MIC [7]: ≥ 128 µg/mL
MIC [8]: ≥ 128 µg/mL
MIC [9]: ≥ 128 µg/mL
MIC [10]: ≥ 128 µg/mL
MIC [11]: ≥ 128 µg/mL

COC[C@@H](O)[C@@H](OC/C=C(\C)[C@@H](C[C@@H](O)[C@@](C)(O)CCC=C(C)C)OC(=O)Cc1ccccc1)[C@H](O)[C@H](O)CO
MIC [1]: ≥ 128 µg/mL
selectivity ratio [2]: > 4
EC50 [3]: 14 µM
CC50 [4]: 55 µM
MIC [5]: ≥ 128 µg/mL
MIC [6]: ≥ 128 µg/mL
MIC [7]: ≥ 128 µg/mL
MIC [8]: ≥ 128 µg/mL
MIC [9]: ≥ 128 µg/mL
MIC [10]: ≥ 128 µg/mL
MIC [11]: ≥ 128 µg/mL

CC(C)=CCC[C@](C)(O)[C@H](O)C[C@@H](OC(=O)Cc1ccccc1)/C(C)=C/CO[C@@H]([C@H](O)[C@H](O)CO)[C@H](O)CO
MIC [1]: ≥ 128 µg/mL
selectivity ratio [2]: > 42
EC50 [3]: 4.8 µM
CC50 [4]: > 200 µM
MIC [5]: ≥ 128 µg/mL
MIC [6]: ≥ 128 µg/mL
MIC [7]: ≥ 128 µg/mL
MIC [8]: ≥ 128 µg/mL
MIC [9]: ≥ 128 µg/mL
MIC [10]: ≥ 128 µg/mL
MIC [11]: ≥ 128 µg/mL

COC[C@@H](O)[C@@H](OC/C=C(\C)[C@@H](C[C@H]1O[C@H](C=C(C)C)C[C@]1(C)O)OC(=O)Cc1ccccc1)[C@H](O)[C@H](O)CO
MIC [1]: ≥ 128 µg/mL
selectivity ratio [2]: > 17
EC50 [3]: 12 µM
CC50 [4]: > 200 µM
MIC [5]: ≥ 128 µg/mL
MIC [6]: ≥ 128 µg/mL
MIC [7]: ≥ 128 µg/mL
MIC [8]: ≥ 128 µg/mL
MIC [9]: ≥ 128 µg/mL
MIC [10]: ≥ 128 µg/mL
MIC [11]: ≥ 128 µg/mL

CC(C)=CCC[C@](C)(O)[C@H](O)C[C@@H](OC(=O)Cc1ccccc1)/C(C)=C/CO[C@@H]([C@H](O)[C@@H](C)O)[C@H](O)CO
MIC [1]: ≥ 128 µg/mL
selectivity ratio [2]: > 25
EC50 [3]: 7.9 µM
CC50 [4]: > 200 µM
MIC [5]: ≥ 128 µg/mL
MIC [6]: ≥ 128 µg/mL
MIC [7]: ≥ 128 µg/mL
MIC [8]: ≥ 128 µg/mL
MIC [9]: ≥ 128 µg/mL
MIC [10]: ≥ 128 µg/mL
MIC [11]: ≥ 128 µg/mL

CC(C)=CCC[C@](C)(O)[C@H](O)C[C@@H](OC(=O)Cc1ccccc1)/C(C)=C/COC([C@H](O)CO)[C@H](O)CO
MIC [1]: ≥ 128 µg/mL
selectivity ratio [2]: > 31
EC50 [3]: 6.5 µM
CC50 [4]: > 200 µM
MIC [5]: ≥ 128 µg/mL
MIC [6]: ≥ 128 µg/mL
MIC [7]: ≥ 128 µg/mL
MIC [8]: ≥ 128 µg/mL
MIC [9]: ≥ 128 µg/mL
MIC [10]: ≥ 128 µg/mL
MIC [11]: ≥ 128 µg/mL

CC(C)OC(=O)[C@H](C)N[P@](=O)(OC[C@H]1O[C@@H](n2ccc(=O)[nH]c2=O)[C@](C)(F)[C@@H]1O)Oc1ccccc1 [SOFOSBUVIR]
selectivity ratio [2]: > 2220
EC50 [3]: 0.09 µM
CC50 [4]: > 200 µM
